# Results as given in ChEMBL document CHEMBL5365534, “Discovery of a Novel Ketohexokinase Inhibitor with Improved Drug Distribution in Target Tissue for the Treatment of Fructose Metabolic Disease” (J Med Chem, 2023).
# What was measured:
# [1] = MRT (0 to t) in Sprague-Dawley rat at 10 mg/kg, po administered as single dose measured upto 24 hrs by LC-MS/MS analysis; type: ADME, organism-based; settings: in vivo
# [2] = AUC (0 to infinity) in Sprague-Dawley rat at 10 mg/kg, po administered as single dose measured upto 24 hrs by LC-MS/MS analysis; type: ADME, organism-based; parameters: dose 10 mg/kg, time < 24 hrs, route po; settings: in vivo
# [3] = AUC (0 to t) in Sprague-Dawley rat at 10 mg/kg, iv administered as single dose measured upto 24 hrs by LC-MS/MS analysis; type: ADME, organism-based; parameters: dose 10 mg/kg, time < 24 hrs, route iv; settings: in vivo
# [4] = AUC (0 to infinity) in Sprague-Dawley rat at 10 mg/kg, iv administered as single dose measured upto 24 hrs by LC-MS/MS analysis; type: ADME, organism-based; parameters: dose 10 mg/kg, time < 24 hrs, route iv; settings: in vivo
# [5] = Clearance in Sprague-Dawley rat at 10 mg/kg, iv administered as single dose measured upto 24 hrs by LC-MS/MS analysis; type: ADME, organism-based; settings: in vivo
# [6] = Tmax in Beagle dog at 5 mg/kg, po administered as single dose measured upto 24 hrs by LC-MS/MS analysis; type: ADME, organism-based, Canis lupus familiaris; settings: in vivo
# [7] = Cmax in Beagle dog at 5 mg/kg, po administered as single dose measured upto 24 hrs by LC-MS/MS analysis; type: ADME, organism-based, Canis lupus familiaris; parameters: time < 24 hrs, dose 5 mg/kg, route po; settings: in vivo
# [8] = MRT (0 to t) in Beagle dog at 5 mg/kg, po administered as single dose measured upto 24 hrs by LC-MS/MS analysis; type: ADME, organism-based, Canis lupus familiaris; settings: in vivo
# [9] = AUC (0 to t) in Beagle dog at 5 mg/kg, po administered as single dose measured upto 24 hrs by LC-MS/MS analysis; type: ADME, organism-based, Canis lupus familiaris; parameters: dose 5 mg/kg, time < 24 hrs, route po; settings: in vivo
# [10] = Volume of distribution at steady state in Beagle dog at 1 mg/kg, iv administered as single dose measured upto 24 hrs by LC-MS/MS analysis; type: ADME, organism-based, Canis lupus familiaris; settings: in vivo, read-out: Vdss
# [11] = Drug metabolism in mouse hepatocytes assessed as glycine conjugation metabolite at 10 uM measured upto 240 mins by LC-MS/MS analysis; type: ADME, cell-based, Hepatocyte; settings: 4 h
# [12] = Drug metabolism in dog hepatocytes assessed as glycine conjugation metabolite at 10 uM measured upto 240 mins by LC-MS/MS analysis; type: ADME, cell-based, Canis lupus familiaris, Hepatocyte; settings: 4 h
# [13] = Drug metabolism in monkey hepatocytes assessed as oxidation/hydrogenation/decarboxylation metabolite at 10 uM measured upto 240 mins by LC-MS/MS analysis; type: ADME, cell-based, Macaca mulatta, Hepatocyte; settings: rhesus monkey, 4 h
# Cytochrome P450 1A2 = biological target: T1, Cytochrome P450 1A2 (Homo sapiens, UniProt P05177); assay: Time dependent inhibition of CYP1A2 in human liver microsomes at 10 uM preincubated for 30 mins followed by substrate addition and measured after 15 mins in presence of NADPH by LC-MS/MS analysis; type: ADME, Microsome
# T1 sequence (P05177 whole entry): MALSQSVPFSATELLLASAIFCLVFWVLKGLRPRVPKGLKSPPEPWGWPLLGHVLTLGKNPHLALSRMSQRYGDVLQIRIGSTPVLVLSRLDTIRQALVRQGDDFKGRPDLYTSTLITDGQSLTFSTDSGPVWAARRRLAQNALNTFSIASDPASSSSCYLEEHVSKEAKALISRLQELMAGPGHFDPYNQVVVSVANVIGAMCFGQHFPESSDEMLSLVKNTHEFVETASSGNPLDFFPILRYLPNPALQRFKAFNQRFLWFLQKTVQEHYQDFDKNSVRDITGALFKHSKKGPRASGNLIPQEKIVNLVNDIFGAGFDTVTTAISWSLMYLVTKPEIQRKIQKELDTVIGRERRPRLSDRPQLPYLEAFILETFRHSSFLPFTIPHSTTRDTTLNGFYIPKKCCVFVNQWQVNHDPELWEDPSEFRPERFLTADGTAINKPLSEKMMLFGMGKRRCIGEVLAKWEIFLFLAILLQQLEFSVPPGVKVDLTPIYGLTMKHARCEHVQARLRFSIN
# Cytochrome P450 2D6 = Cytochrome P450 2D6 (Homo sapiens, UniProt P10635); assay: Time dependent inhibition of CYP2D6 in human liver microsomes at 10 uM preincubated for 30 mins followed by substrate addition and measured after 15 mins in presence of NADPH by LC-MS/MS analysis; type: ADME, Microsome
# Cytochrome P450 2C9 = Cytochrome P450 2C9 (Homo sapiens, UniProt P11712); assay: Time dependent inhibition of CYP2C9 in human liver microsomes at 10 uM preincubated for 30 mins followed by substrate addition and measured after 15 mins in presence of NADPH by LC-MS/MS analysis; type: ADME, Microsome
# Ketohexokinase = biological target: T2, Ketohexokinase (Homo sapiens, UniProt P50053)
# T2 sequence (P50053 whole entry): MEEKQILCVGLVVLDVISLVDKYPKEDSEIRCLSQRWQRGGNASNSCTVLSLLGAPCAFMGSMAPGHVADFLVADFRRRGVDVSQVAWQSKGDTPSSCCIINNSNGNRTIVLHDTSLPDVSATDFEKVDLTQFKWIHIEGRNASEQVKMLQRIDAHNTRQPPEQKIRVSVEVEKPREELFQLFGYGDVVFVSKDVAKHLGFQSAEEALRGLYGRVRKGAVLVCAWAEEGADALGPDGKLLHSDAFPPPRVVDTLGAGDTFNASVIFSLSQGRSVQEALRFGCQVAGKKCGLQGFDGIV
# Cytochrome P450 2C19 = Cytochrome P450 2C19 (Homo sapiens, UniProt P33261)
# HepG2 = assay: cells; settings: Homo sapiens, HepG2, 3 h
# in vivo = settings: Sprague-Dawley, rat, spleen, po, 10 mg/kg
# in vitro [14] = settings: human, Caco-2
# in vitro [15] = settings: human, Caco-2; remark: listed apart in the source
# in vitro [16] = settings: mouse, liver microsomes
# in vitro [17] = settings: dog, liver microsomes
# in vitro [18] = settings: human, hepatocytes
# in vitro [19] = settings: human, plasma
# PXR = biological target: T3, PXR (Homo sapiens, UniProt O75469); assay: in vitro
# T3 sequence (O75469 whole entry): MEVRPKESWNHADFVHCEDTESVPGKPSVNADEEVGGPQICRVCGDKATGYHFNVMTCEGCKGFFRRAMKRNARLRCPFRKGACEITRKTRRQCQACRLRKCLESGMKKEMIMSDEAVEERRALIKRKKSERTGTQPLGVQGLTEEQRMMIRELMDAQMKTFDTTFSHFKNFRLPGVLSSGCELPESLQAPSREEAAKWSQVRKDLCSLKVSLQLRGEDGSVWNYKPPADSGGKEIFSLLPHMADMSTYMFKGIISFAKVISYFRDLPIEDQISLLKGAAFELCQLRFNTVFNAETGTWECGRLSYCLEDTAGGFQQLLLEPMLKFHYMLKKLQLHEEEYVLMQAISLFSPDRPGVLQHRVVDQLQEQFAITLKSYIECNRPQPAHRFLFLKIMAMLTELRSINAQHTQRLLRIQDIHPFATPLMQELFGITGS
# Sequence of Cytochrome P450 2C9 (P11712 whole entry): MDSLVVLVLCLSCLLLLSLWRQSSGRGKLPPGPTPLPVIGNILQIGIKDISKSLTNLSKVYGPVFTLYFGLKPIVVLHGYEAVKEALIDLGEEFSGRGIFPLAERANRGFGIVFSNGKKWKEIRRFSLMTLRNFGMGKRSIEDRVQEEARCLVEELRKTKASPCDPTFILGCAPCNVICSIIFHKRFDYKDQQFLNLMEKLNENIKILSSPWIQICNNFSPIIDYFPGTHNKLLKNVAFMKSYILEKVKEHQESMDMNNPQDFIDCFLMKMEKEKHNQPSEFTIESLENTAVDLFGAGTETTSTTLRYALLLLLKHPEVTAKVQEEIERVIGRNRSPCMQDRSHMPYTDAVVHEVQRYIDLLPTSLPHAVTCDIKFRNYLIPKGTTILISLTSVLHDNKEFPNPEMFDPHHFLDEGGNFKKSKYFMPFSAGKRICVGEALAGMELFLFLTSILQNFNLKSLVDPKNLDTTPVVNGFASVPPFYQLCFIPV
# Sequence of Cytochrome P450 2C19 (P33261 whole entry): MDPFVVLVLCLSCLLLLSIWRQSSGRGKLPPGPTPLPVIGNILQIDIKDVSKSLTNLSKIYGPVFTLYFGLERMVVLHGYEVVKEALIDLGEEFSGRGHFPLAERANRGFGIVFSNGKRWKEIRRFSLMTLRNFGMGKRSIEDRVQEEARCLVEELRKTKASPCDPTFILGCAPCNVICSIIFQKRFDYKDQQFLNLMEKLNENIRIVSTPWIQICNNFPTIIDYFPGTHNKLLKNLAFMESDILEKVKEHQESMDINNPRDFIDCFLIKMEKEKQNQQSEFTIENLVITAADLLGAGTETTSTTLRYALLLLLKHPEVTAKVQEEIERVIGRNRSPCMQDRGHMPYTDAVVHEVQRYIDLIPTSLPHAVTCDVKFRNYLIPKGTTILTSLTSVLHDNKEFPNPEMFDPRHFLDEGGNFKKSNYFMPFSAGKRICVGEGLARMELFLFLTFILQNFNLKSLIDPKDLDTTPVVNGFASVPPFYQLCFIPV
# Sequence of Cytochrome P450 2D6 (P10635 whole entry): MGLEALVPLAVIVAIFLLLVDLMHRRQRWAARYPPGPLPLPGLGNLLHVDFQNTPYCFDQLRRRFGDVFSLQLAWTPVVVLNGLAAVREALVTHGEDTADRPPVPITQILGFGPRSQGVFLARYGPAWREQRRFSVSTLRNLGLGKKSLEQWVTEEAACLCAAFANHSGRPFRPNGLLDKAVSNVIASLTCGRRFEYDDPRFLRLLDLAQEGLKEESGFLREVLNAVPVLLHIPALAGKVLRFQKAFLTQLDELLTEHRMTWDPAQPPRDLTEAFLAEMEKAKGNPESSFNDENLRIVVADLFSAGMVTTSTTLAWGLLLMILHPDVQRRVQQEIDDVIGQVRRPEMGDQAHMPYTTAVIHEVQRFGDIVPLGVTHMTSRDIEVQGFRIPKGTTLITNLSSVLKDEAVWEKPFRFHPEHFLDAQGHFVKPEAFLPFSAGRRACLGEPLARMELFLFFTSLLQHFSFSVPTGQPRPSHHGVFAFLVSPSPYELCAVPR
smiles,measurement,setting,value
C[C@H]1CCN1c1nc(N2CC[C@H](CCC(=O)O)C2)c2c(n1)C(F)(F)CC2,MRT last at 24 h,[1],8.5 h
same,AUC,[2],44400 ng·h/mL
same,AUCt,[3],73000 ng·h/mL
same,AUC,[4],76200 ng·h/mL
same,clearance,[5],2.52 mL/min/kg
same,Tmax,[6],45 min
same,Cmax,[7],10100 ng/mL
same,MRT last at 24 h,[8],4.15 h
same,AUCt,[9],33400 ng·h/mL
same,Vd,[10],0.87 L/kg
same,Drug metabolism,[11],Metabolite_Notdetected
same,Drug metabolism,[12],Metabolite_Notdetected
same,Drug metabolism,[13],Metabolite_Notdetected
same,IC50,Cytochrome P450 1A2,> 10 µM
same,IC50,Cytochrome P450 2D6,> 10 µM
same,IC50,Cytochrome P450 2C9,> 10 µM
same,IC50,Ketohexokinase,57.2 nM
same,IC50,Cytochrome P450 2C19,> 30 µM
same,IC50,HepG2,196 nM
same,concentration at 24 h,in vivo,1140 ng/g
same,solubility kinetic,physchem,> 1000 µM
same,"Papp A→B at 2 h, 10 µM",in vitro [14],3.64 ×10⁻⁶ cm/s
same,efflux ratio,in vitro [15],7.45
same,"microsomal CLint at 2 h, 1 µM",in vitro [16],8 µL/min/mg
same,"microsomal CLint at 2 h, 1 µM",in vitro [17],< 6.4 µL/min/mg
same,"hepatocyte CLint at 2 h, 1 µM",in vitro [18],< 0.96 µL/min/1e6 cells
same,fraction unbound,in vitro [19],0.089
same,activity at 30 µM,PXR,0.96%
